Source: patent US20190240172A1, “PHARMACEUTICAL COMPOSITION FOR PREVENTING OR TREATING DIABETES AND/OR […] COMPRISING MIDODRINE OR PHARMACEUTICALLY ACCEPTABLE SALT THEREOF AS ACTIVE INGREDIENT” (Cellvertics Co., Ltd., priority 2016, published 2019)
Marks after values point to notes of the source that are not given here.

Key:
[1] = ATP level in tissue by ELISA; format: in vivo, spontaneously hypertensive rat (SHR); conditions: SHR, compared to control SHRs, FIG. 4
Description: 0.02 g of liver tissue isolated from the rats of Example 1-2 was homogenized in 500 μL of PBS. The homogenate was centrifuged at 1500×g (or 5000 rpm) for 15 minutes and the supernatant was recovered. After adding 100 μL of standard materials or samples to adequate wells of a pre-coated microtiter plate, 10 μL of the remaining solution was added to the sample. After adding 50 μL of the conjugate to each well and then mixing, the plate was covered and incubation was conducted at 37° C. for 1 hour. After adding 50 μL of each of substrates A and B to each well, incubation was conducted at 37° C. for 15 minutes. After adding a stop solution to each well, optical density was measured at 450 nm using a microplate reader.
The ATP level in the heart, skeletal muscle and liver of basal 4-week-old rat (I), midodrine-administered rat (II), atenolol-administered rat (III) and unadministered 8-week-old control rat (IV) was measured by ELISA according to the method of Example 2-1.

[2] = Blood adiponectin by ELISA, normalized to visceral fat weight; format: in vivo, spontaneously hypertensive rat (SHR); conditions: SHR, 4 weeks in drinking water, mean ± SD
From the text: The measured adiponectin level was normalized to the visceral fat weight (g).

[3] = test system: HMG-CoA reductase protein (HMGCR); experiment: Expression of HMG-CoA reductase protein in liver of SHR; format: in vivo, spontaneously hypertensive rat (SHR); conditions: among rat groups, FIG. 7
[4] = Body weight, heart weight and abdominal fat weight in SHR; format: in vivo, spontaneously hypertensive rat (SHR)
Description: Body weight was measured for the same rats whose cardiac function was measured.
When the body weight and the weight of abdominal fat (visceral fat) were measured for the midodrine-administered rat (II), atenolol-administered rat (III) and unadministered 8-week-old hypertensive control rat (IV) of Example 1-2, midodrine administration decreased both the body weight and abdominal fat as shown in FIG. 9.

[5] = test system: spontaneously hypertensive rat (SHR); experiment: Cardiac function by M-mode echocardiography and heart rate in SHR; conditions: for Diastolic left ventricular inner diameter / Diastolic left ventricular posterior wall / Diastolic left ventricular wall / Left ventricular ejection fraction / Left ventricular fractional shortening / Left ventricular mass measured by ASE / Systolic left ventricular inner diameter / left ventricular performance: 8-week-old SHR, echocardiography; for Diastolic left ventricular inner diameter / Diastolic left ventricular posterior wall / Diastolic left ventricular wall / Left ventricular ejection fraction / Left ventricular fractional shortening / Left ventricular mass measured by ASE / Systolic left ventricular inner diameter: 4 weeks in drinking water (midodrine 0.3 mg/kg/day, atenolol 1 mg/kg/day), mean ± SD; for left ventricular performance: compared with unadministered control group IV
[6] = test system: mouse skeletal muscle cells (C2C12); experiment: Western blot of p-AMPK and PPAR-δ in midodrine-treated skeletal muscle cells; format: cell-based; conditions: FIG. 1
Description: (§1) The L6 and HL1 cells were grown in a medium (DMEM) containing 10% FBS (fetal bovine serum) and 1% antibiotic until about 80% confluence, and then the medium was replaced with a medium containing 1% FBS for differentiation for 4 days. The drug was treated on day 3 of differentiation. All in-vitro experiments using the L6 and HL1 cells were conducted 24 hours after the drug treatment.
(§2) In order to investigate the effect of α1-AR stimulation on AMPK and AMPK phosphorylation (activation) in vitro, the mouse skeletal muscle cells […] and the mouse cardiac muscle cells (HL1) cultured in Example 1-1 were treated with 30 μM of midodrine, which is an α1-AR agonist, and then western blot was conducted as described in Example 2-3.

[7] = test system: mouse cardiac muscle cells (HL1); experiment: Western blot of p-AMPK and PPAR-δ in midodrine-treated cardiac muscle cells; format: cell-based; conditions: FIG. 1
Description: as §1, §2

[8] = test system: SDH (succinate dehydrogenase); experiment: Enzymatic activity of SDH in skeletal muscle of SHR; format: in vivo, spontaneously hypertensive rat (SHR); conditions: among groups I-IV, FIG. 3A
Description: After adding 10 μL of protease inhibitor cocktail per 1 mL of PBS (phosphate-buffered saline) to each well (500 μL), 410 μL of a culture solution prepared by mixing 1 M phosphate buffer (25 μL×25=625 μL), 0.2 M sodium succinate (125 μL×25=3125 μL), NBT (25 μL×25=625 μL) and D.W. (235 μL×25=5875 μL) per well was heated to 37° C. for 20 minutes. […] After conducting centrifugation at 13000 rpm and 4° C. for 5 minutes, the supernatant was recovered and transferred to a fresh tube. After adding 410 μL of a culture solution to a tube, enzymatic reaction was conducted by adding 90 μL of the sample. After adding 410 μL of distilled water (DW) to another tube and adding 90 μL of the sample, the absorbance of the dilute was measured. After adding the enzymatic reaction tube and the another tube in water bath at 37° C., respectively, reaction was conducted for 30 minutes. The reaction was terminated by putting the tube in ice. After adding 200 μL to each well of a 96-well plate, absorbance was measured at 550 nm. Then, the enzymatic activity of succinate dehydrogenase (SDH) was measured by the following equation.
Enzymatic activity=(absorbance of enzymatic reaction solution−absorbance of diluted enzymatic reaction solution)/protein content (Bradford 595 nm)

[9] = test system: cytochrome c oxidase; experiment: Immunohistochemical staining for cytochrome c oxidase in skeletal muscle tissue of SHR; format: in vivo, spontaneously hypertensive rat (SHR); conditions: among groups I-IV, FIG. 3B
[10] = test system: mouse-derived preadipocytes (3T3-L1); experiment: Fat content in adipocytes observed by microscope; format: cell-based; conditions: FIG. 8A
Description: (§3) The 3T3-L1 cells were grown in a medium (DMEM) containing 10% FBS (fetal bovine serum) and 1% antibiotic until 100% and then cultured for 48 hours after replacing the medium with a fresh medium. After adding a differentiation medium and the drug, the cells were cultured for 48 hours. The composition of the differentiation medium was as follows: 0.0125 μmol/mL dexamethasone, 12.5 μmol/mL 3-isobutyl-1-methylxanthine, 10 μg/mL insulin, 10% FBS. After treating with the differentiation medium for 48 hours, the medium was replaced with an insulin medium containing 10 μg/mL insulin and 10% FBS and then treated for 48-96 hours. Then, after replacing the medium with a normal medium containing 10% FBS only, the cells were cultured for 24-48 hours and then used for experiments.

[11] = test system: preadipocytes (3T3-L1); experiment: Western blot of PPAR-δ, p-AMPK and PGC-1α in midodrine-treated adipocytes; format: cell-based, mouse; conditions: midodrine-treated adipocytes (3T3-L1), FIG. 8B
Description: as §3
In addition, when western blotting was conducted on the midodrine-treated adipocytes according to the method of Example 2-3, the expression of […], p-AMPK and PGC-1α proteins suppressing fat synthesis/accumulation was increased as shown in FIG. 8B.

[12] = test system: AMPK/PPAR-δ/PGC1α proteins; experiment: Western blot of AMPK, PPAR-δ and PGC-1α proteins in cardiac muscle, skeletal muscle, fat and liver of SHR
[13] = 8-week-old SHR, 4 weeks in drinking water (midodrine 0.3 mg/kg/day, atenolol 1 mg/kg/day), mean ± SD

For `CC(C)NCC(O)COc1ccc(CC(N)=O)cc1` (stereo not shown) [Atenolol, atenolol], the “ATP level in heart tissue” value [1] was “higher”, the “Adiponectin (serum level per weight of visceral fat)” value [2] was 6136.5 ± 574.7^b,c ng/mL/g and the “expression level of HMG-CoA reductase protein (HMGCR) in the liver” value [3] was “the lowest”. For the same compound, the Body weight [4, 13] was 296.46 ± 16.73^b g, the Hear weight [4, 13] was 1.47 ± 0.15^a g and the Body weight ([4]; 8-week-old SHR, 4 weeks in drinking water (midodrine 0.3 mg/kg/day, atenolol 1 mg/kg/day), mean ± SD, listed as group III) was “the highest”. For the same compound, the “Diastolic left ventricular inner diameter” value [5] was 6.33 ± 0.35^a mm, the “Diastolic left ventricular posterior wall” value [5] was 1.67 ± 0.16 mm and the “Diastolic left ventricular wall” value [5] was 1.50 ± 0.13^a mm. For the same compound, the “Left ventricular ejection fraction” value [5] was 82.00 ± 5.31^a %, the “Left ventricular fractional shortening” value [5] was 45.70 ± 5.82^a % and the “Left ventricular mass measured by ASE” value [5] was 1.10 ± 0.07^a g. For the same compound, the “Systolic left ventricular inner diameter” value [5] was 3.43 ± 0.28^a mm, the left ventricular performance [5] was “higher” and the heart rate ([5]; SHR from 4 weeks of age, measured over 1 month, at the end of the experiment, among three groups, FIG. 6) was “the lowest”.
In the case of `COc1ccc(OC)c(C(O)CNC(=O)CN)c1` (racemic) [Midodrine, (RS)—N-[2-(2,5-dimethoxyphenyl)-2-hydroxyethyl]glycinamide], the “expression of PPAR-δ protein” value [6] is reported as “increases”, the “expression of phosphorylated AMPK” value ([6]; midodrine 30 μM) is reported as “increased” and the “expression of PPAR-δ protein” value [7] is reported as “increases”. For the same compound, the “expression and phosphorylation of AMPK” value ([7]; midodrine 30 μM) was “resulted in the expression and phosphorylation of AMPK”, the “enzymatic activity of SDH in skeletal muscle” value [8] was “the highest increase” and the “cytochrome c oxidase immunohistochemical staining in skeletal muscle tissue” value [9] was “the highest increase”. For the same compound, the “ATP level in heart tissue” value [1] was “higher”, the “Adiponectin (serum level per weight of visceral fat)” value [2] was 7585.8 ± 182.3^b ng/mL/g and the “Adiponectin (serum level per weight of visceral fat)” value ([2]; listed as group II) was “remarkably higher”. The “expression level of HMG-CoA reductase protein (HMGCR) in the liver” value [3] was “the lowest”, the “fat content in adipocytes” value ([10]; 3T3-L1, 30 μM/L midodrine, microscope) was “decreased” and the “expression of PGC-1α protein” value [11] was “increased”. The “expression of PPAR-5 protein” value [11] was “increased”, the “expression of p-AMPK protein” value [11] was “increased” and the Body weight [4, 13] was 238.24 ± 11.69^a g. For the same compound, the Hear weight [4, 13] was 1.47 ± 0.16^a g, the Body weight ([4]; SHR groups II, III and IV, FIG. 9 (A)) was “decreased” and the “weight of abdominal fat (visceral fat)” value ([4]; SHR groups II, III and IV, FIG. 9 (B)) was “decreased”. For the same compound, the “Diastolic left ventricular inner diameter” value [5] was 6.06 ± 0.42^a mm, the “Diastolic left ventricular posterior wall” value [5] was 1.54 ± 0.13^a mm and the “Diastolic left ventricular wall” value [5] was 1.46 ± 0.13^a mm. For the same compound, the “Left ventricular ejection fraction” value [5] was 81.55 ± 6.12^a %, the “Left ventricular fractional shortening” value [5] was 45.48 ± 6.25^a % and the “Left ventricular mass measured by ASE” value [5] was 1.04 ± 0.06 g. The “Systolic left ventricular inner diameter” value [5] was 3.32 ± 0.54^a mm, the “Left ventricular mass measured by ASE” value ([5]; listed as group II) was “the lowest” and the left ventricular performance [5] was “higher”. For the same compound, the “cardiac hypertrophy or further increase in blood pressure” value ([5]; SHR, summary statement, no blood pressure method described) was “without cardiac hypertrophy or further increase in blood pressure”, the “AMPK expression in cardiac muscle” value ([12]; 4 weeks in drinking water, compared to control group IV, FIG. 2B) was “remarkably higher” and the “AMPK expression in skeletal muscle” value ([12]; 4 weeks in drinking water, compared to control group IV, FIG. 2C) was “remarkably higher”. For the same compound, the “AMPK expression in fat” value ([12]; 4 weeks in drinking water, compared to control group IV, FIG. 2D) was “remarkably higher”, the “expression level of the phosphorylated AMPK protein in the liver” value ([12]; among groups I-IV, FIG. 2E) was “the highest” and the “activation and expression of AMPK, PPAR-δ and PGC-1α in the heart, skeletal muscle and liver” value ([12]; summary statement) was “induces activation and increased expression”.
With `COC(=O)c1sccc1S(=O)(=O)Nc1ccc(Nc2ccccc2)cc1OC` [GSK0660] the “effect on fat content in adipocytes when GSK0660 is added to midodrine” value ([10]; 3T3-L1, 30 μM/L midodrine + 50 μM/L GSK0660 mixture (1:2 (w/w))) was “the effect of midodrine was decreased”.
